Activity calls are given as the source filed them. The rule behind the calls is not given here.
Tests used:
H9c2 [1] = assay: Cardioprotective activity against hydrogen peroxide induced cell injury in rat H9c2 cells at 40 uM pretreated for 24 hrs followed by treatment with hydrogen peroxide for 2 hrs by MTT assay; type: functional, cell-based; conditions: time 26.0 hrs
H9c2 [2] = assay: Cardioprotective activity against hydrogen peroxide induced cell injury in rat H9c2 cells assessed as reduction in loss of cell membrane integrity by measuring LDH level at 20 uM pretreated with compound for 24 hrs followed by treatment with hydrogen peroxide for 2 hrs relative to control; type: functional; set-up: scale not given: the % may be the effect or the level left
H9c2 [3] = assay: Antiinflammatory activity in hydrogen peroxide induced rat H9c2 cells assessed as reversal of increase in IL-18 mRNA expression pretreated with compound for 24 hrs followed by treatment with hydrogen peroxide for 2 hrs; type: functional, cell-based; conditions: dose 5-20 µM, time 26.0 hrs
Rattus norvegicus [4] = assay: Cardioprotective activity in myocardial ischemia/reperfusion induced ip dosed Sprague-Dawley rat injury model assessed as increase in heart AST level administered once a day for 2 weeks; type: functional, organism-based; conditions: dose 5-20 mg/kg
Rattus norvegicus [5] = assay: Cardioprotective activity in myocardial ischemia/reperfusion induced Sprague-Dawley rat injury model assessed as decrease in ST-segment elevation at 5 to 20 mg/kg, ip administered once a day for 2 weeks measured by electrocardiogram; type: functional, organism-based; conditions: dose 5-20 mg/kg
H9c2 [6] = assay: Antiinflammatory activity in hydrogen peroxide induced rat H9c2 cells assessed as reversal of increase in IL-1beta mRNA expression pretreated with compound for 24 hrs followed by treatment with hydrogen peroxide for 2 hrs; type: functional, cell-based; conditions: dose 5-20 µM, time 26.0 hrs
H9c2 [7] = assay: Cytotoxicity against rat H9c2 cells assessed as reduction in cell viability upto 100 uM measured after 24 hrs by MTT assay relative to control; type: toxicity, cell-based; conditions: h9c2, 24 h
H9c2 [8] = assay: Antiinflammatory activity in hydrogen peroxide induced rat H9c2 cells assessed as reversal of increase in NLRP-3 mRNA expression pretreated with compound for 24 hrs followed by treatment with hydrogen peroxide for 2 hrs; type: functional, cell-based; conditions: dose 5-20 µM, time 26.0 hrs
Rattus norvegicus [9] = assay: Cardioprotective activity in myocardial ischemia/reperfusion induced Sprague-Dawley rat injury model assessed as reduction in cardiac infarct size at 10 mg/kg, ip administered once a day for 2 weeks measured by Evans blue staining analysis (reference value: 46.8%); type: functional, Heart; set-up: scale not given: the % may be the effect or the level left
Rattus norvegicus [10] = assay: Antiinflammatory activity in myocardial ischemia/reperfusion induced ip dosed Sprague-Dawley rat injury model assessed as increase in CAT activity administered once a day for 2 weeks by Western blotting analysis; type: functional, organism-based; conditions: dose 5-20 mg/kg
Rattus norvegicus [11] = assay: Cardioprotective activity in myocardial ischemia/reperfusion induced Sprague-Dawley rat injury model assessed as reduction in heart cardiac infarct size at 20 mg/kg, ip administered once a day for 2 weeks measured by Evans blue staining analysis (reference value: 46.8%); type: functional; set-up: scale not given: the % may be the effect or the level left
Rattus norvegicus [12] = assay: Antioxidant activity in myocardial ischemia/reperfusion induced Sprague-Dawley rat injury model assessed as […] Nrf2 expression administered at 10 mg/kg, ip once a day for 2 weeks by Western blotting analysis; type: functional, organism-based
Rattus norvegicus [13] = assay: Antiinflammatory activity in myocardial ischemia/reperfusion induced ip dosed Sprague-Dawley rat injury model assessed as decrease in IL-1beta protein expression in heart administered once a day for 2 weeks by Western blotting analysis; type: functional, organism-based; conditions: dose 5-20 mg/kg
H9c2 [14] = assay: Cardioprotective activity against hydrogen peroxide induced cell injury in rat H9c2 cells assessed as reversal of abnormal cell morphology pretreated with compound for 24 hrs followed by treatment with hydrogen peroxide for 2 hrs; type: functional, cell-based; conditions: dose 5-20 µM, time 26.0 hrs
H9c2 [15] = assay: Antioxidant activity in hydrogen peroxide induced rat H9c2 cells assessed as increase in HO-1 expression pretreated with compound for 24 hrs followed by treatment with hydrogen peroxide for 2 hrs; type: functional, cell-based; conditions: dose 5-20 µM, time 26.0 hrs
H9c2 [16] = assay: Cardioprotective activity against hydrogen peroxide induced cell injury in rat H9c2 cells assessed as reduction in loss of cell membrane integrity by measuring LDH level at 10 uM pretreated with compound for 24 hrs followed by treatment with hydrogen peroxide for 2 hrs relative to control; type: functional; set-up: scale not given: the % may be the effect or the level left
H9c2 [17] = assay: Inhibition of autophagy in hydrogen peroxide induced rat H9c2 cells assessed as down regulation of […] mRNA level at 5 to 20 uM pretreated with compound for 24 hrs followed by treatment with hydrogen peroxide for 2 hrs; type: functional, cell-based; conditions: dose 5-20 µM, time 26.0 hrs
H9c2 [18] = assay: Inhibition of autophagy in hydrogen peroxide induced rat H9c2 cells assessed as down regulation of p62 mRNA level at 5 to 20 uM pretreated with compound for 24 hrs followed by treatment with hydrogen peroxide for 2 hrs; type: functional, cell-based; conditions: dose 5-20 µM, time 26.0 hrs
H9c2 [19] = assay: Antioxidant activity in hydrogen peroxide induced rat H9c2 cells assessed as increase in SOD expression pretreated with compound for 24 hrs followed by treatment with hydrogen peroxide for 2 hrs; type: functional, cell-based; conditions: dose 5-20 µM, time 26.0 hrs
H9c2 [20] = assay: Cardioprotective activity against hydrogen peroxide induced cell injury in rat H9c2 cells assessed as reduction in loss of cell membrane integrity by measuring LDH level at 5 uM pretreated with compound for 24 hrs followed by treatment with hydrogen peroxide for 2 hrs relative to control; type: functional; set-up: scale not given: the % may be the effect or the level left
H9c2 [21] = assay: Cardioprotective activity against hydrogen peroxide induced cell injury in rat H9c2 cells assessed as increase in cell viability at 5 to 20 uM measured after 24 hrs by MTT assay; type: functional, cell-based; conditions: dose 5-20 µM
Rattus norvegicus [22] = assay: Cardioprotective activity in myocardial ischemia/reperfusion induced ip dosed Sprague-Dawley rat injury model assessed as increase in heart LDH level administered once a day for 2 weeks; type: functional, organism-based; conditions: dose 5-20 mg/kg
H9c2 [23] = assay: Cardioprotective activity against hydrogen peroxide induced cell injury in rat H9c2 cells at 5 to 20 uM pretreated with compound for 24 hrs followed by hydrogen peroxide addition for 2 hrs by MTT assay; type: functional, cell-based; conditions: dose 5-20 µM, time 26.0 hrs
Rattus norvegicus [24] = assay: Antiinflammatory activity in myocardial ischemia/reperfusion induced Sprague-Dawley rat injury model assessed as decrease in IL-1beta protein expression in heart at 10 mg/kg, ip administered once a day for 2 weeks by Western blotting analysis; type: functional, organism-based
Rattus norvegicus [25] = assay: Antiinflammatory activity in myocardial ischemia/reperfusion induced ip dosed Sprague-Dawley rat injury model assessed as decrease in MDA level administered once a day for 2 weeks by Western blotting analysis; type: functional, organism-based; conditions: dose 5-20 mg/kg
H9c2 [26] = assay: Antioxidant activity in hydrogen peroxide induced rat H9c2 cells assessed as increase in Nrf2 expression pretreated with compound for 24 hrs followed by treatment with hydrogen peroxide for 2 hrs; type: functional, cell-based; conditions: dose 5-20 µM, time 26.0 hrs
Rattus norvegicus [27] = assay: Antiinflammatory activity in myocardial ischemia/reperfusion induced ip dosed Sprague-Dawley rat injury model assessed as decrease in NLRP3 protein expression in heart administered once a day for 2 weeks by Western blotting analysis; type: functional, organism-based; conditions: dose 5-20 mg/kg
H9c2 [28] = assay: Cardioprotective activity against hydrogen peroxide induced cell injury in rat H9c2 cells assessed as increase in cell viability at 5 uM measured after 24 hrs by MTT assay; type: functional

COCCc1ccc(OCC(O)CNC(C)C)cc1 (stereo not drawn)
Activity (H9c2 [1]): Active

CN1C(=O)C(=Cc2ccc(O)c(O)c2)C(=O)N(C)C1=O
Activity (H9c2 [2]): 60.7% | Activity (H9c2 [3]): Dose-Dependent Effect | Activity (Rattus norvegicus [4]): Dose-Dependent Effect | Activity (Rattus norvegicus [5]): Active | Activity (H9c2 [6]): Dose-Dependent Effect | Activity (H9c2 [7]): Non-Toxic | Activity (H9c2 [8]): Dose-Dependent Effect | Activity (Rattus norvegicus [9]): 32.3% | Activity (Rattus norvegicus [10]): Active | Activity (Rattus norvegicus [11]): 22.3% | Activity (Rattus norvegicus [12]): inactive | Activity (Rattus norvegicus [13]): Active | Activity (H9c2 [14]): Dose-Dependent Effect | Activity (H9c2 [15]): Dose-Dependent Effect | Activity (H9c2 [16]): 35.6% | inhibition (H9c2 [17]): Active | inhibition (H9c2 [18]): Active | Activity (H9c2 [19]): Dose-Dependent Effect | Activity (H9c2 [20]): 15.3% | Activity (H9c2 [21]): Active | Activity (Rattus norvegicus [22]): Dose-Dependent Effect | Activity (H9c2 [23]): Active | Activity (Rattus norvegicus [24]): Active | Activity (Rattus norvegicus [25]): Active | Activity (H9c2 [26]): Dose-Dependent Effect | Activity (Rattus norvegicus [27]): Active | Activity (H9c2 [28]): 77.5%

O=c1cc(-c2ccc(O)c(O)c2)oc2cc(O)cc(O)c12
Activity (H9c2 [1]): Active

CN1C(=O)C(=Cc2ccccc2O)C(=O)N(C)C1=O
Activity (H9c2 [21]): Active | Activity (H9c2 [28]): 40.3%

Cc1ccc(O)c(C=C2C(=O)N(C)C(=O)N(C)C2=O)c1
Activity (H9c2 [23]): Active

CN1C(=O)C(=Cc2cccc(O)c2O)C(=O)N(C)C1=O
Activity (H9c2 [23]): Active

Source: ChEMBL document CHEMBL5247615, “Discovery of 5-(3,4-dihydroxybenzylidene)-1,3-dimethylpyrimidine- 2,4,6(1H,3H,5H)-trione as a novel and effective cardioprotective agent via dual anti-inflammatory and anti-oxidative activities” (Eur J Med Chem, 2022)
